The record followed here is patent publication EP4104817A1, “OPHTHALMIC COMPOSITION COMPRISING ASTRAGALOSIDE IV” (Skeye Pharma GbR, priority 2021, dated 2022).

In general, viability refers to a read-out of living cells in per cent, often relative to untreated cells.

Test [1] has as its system Intracellular, mitochondrial reactive oxygen species (ROS). Nature of the test: Dihydrorhodamine-123 (DHR-123) fluorescence assay of ROS under oxidative stress (H2O2, 2 hours). The conditions noted are these: Homo sapiens, HCEC, hCECs, percent of DMSO control, H2O2 group 149 ± 9%, p = 0.0006 vs H2O2. The class given is cell-based. As to the method: Intracellular, mitochondrial reactive oxygen species (ROS) were assessed using the cell membrane permeable dihydrorhodamine-123 (DHR-123) assay (D23806; ThermoFisher Scientific, Waltham, MA, USA) according to the manufacturer's instructions. Measurements were made after exposing human corneal epithelial cells to H2O2, astragaloside IV or DMSO for 2 hours. For ROS staining, cells were incubated with 10 µM DHR-123 for 15 minutes. Nucleus staining was performed using Hoechst 33342 nucleic acid stain (H1399; ThermoFisher Scientific, Waltham, MA, USA). Randomly, a minimum of 3 images of every treatment group were acquired with a 20x fluorescence objective using the aforementioned Axio Observer 7. Results were expressed in percent of fluorescence intensity relative to the baseline measurement in the DMSO control group. For quantification of the fluorescence signals, the microscope software ZEN 3.0 (Carl Zeiss AG, Jena, Germany) was used.

Test [2] concerns hCEC. Nature of the test: BrdU ELISA cell proliferation assay, 24 hours of treatment. The class given is cell-based. To be noted: Homo sapiens, compared to DMSO-treated control, mean ± standard deviation. As to the method: Proliferation of hCEC was determined using a 5-bromo-2'-deoxyuridine (BrdU) ELISA in accordance with the manufacturers' recommendations (Merck KGaA, Darmstadt, Germany). In brief, approximately 7,000 cells were seeded onto a 96-well cell culture plate and incubated for 24h to achieve complete adherence of the cells. After 24 hours of incubation with 100 µl of corneal epithelial cell growth medium without its' supplement mix, hCECs were treated with astragaloside IV dissolved in DMSO. Following another 24 hours of incubation with BrdU labeling solution, cells were fixed and incubated with anti-BrdU antibodies according to the manufacturer's recommendations. BrdU incorporation into the DNA of hCECs was quantified by absorbance measurement at 450 nm using the ELISA reader Spectramax 190 (Molecular Devices, Sunnyvale, CA, USA).
A general note: Uptake of a labelled nucleoside into DNA is a usual measure of proliferation.

Test [3] concerns human corneal epithelial cells. The test can be described thus: WST-1 cell viability assay under oxidative stress (H2O2 100 µM, 24 hours). The class given is cell-based. The conditions noted are these: H2O2 group 79 ± 14%, untreated control 100 ± 3%. How it is done: (§1) Human corneal epithelial cells (hCEC; SCCE016; Merck Millipore, Burlington, MA, USA) were cultured in corneal epithelial cell growth medium with supplement mix (LGC Standards, Teddington, United Kingdom). Approximately 10,000 hCECs were seeded onto each well of a 96-well cell-culture dishes (NUNC, Langenselbold, Germany). Confluent cells were used for Water-soluble tetrazolium salt (WST-1) cell proliferation assays (Hoffmann-La Roche AG, Basel, Switzerland). After 24 hours of incubation with 100 µl of corneal epithelial cell growth medium without its' supplement mix (LGC Standards, Teddington, United Kingdom), hCECs were treated with different concentrations of astragaloside IV (AIV; Selleckchem, Houston, TX, USA) dissolved in dimethyl sulfoxide (DMSO; Carl Roth AG, Karlsruhe, Germany). Control groups were treated with DMSO only. Following another 72 hours of incubation, the cells were incubated with the WST-1 solution for 30 minutes. Substrate turnover was measured with an ELISA reader at 450 nm (Spectramax 190; Molecular Devices, Sunnyvale, CA, USA) and a reference at 690 nm.
To determine potential anti-oxidative effects of astragaloside IV, hCECs were incubated and treated analogous to the above-mentioned WST-1 cell proliferation assay with minor modifications. […]
For orientation: Tetrazolium dyes change colour on reduction, which living cells bring about.

Test [4] deals with bovine corneas. Nature of the test: Corneal erosion assay ex vivo (epithelial wound healing), follow-up 72 hours. To be noted: 1 µM or 2.5 µM, every 12 hours up to 72 hours, versus DMSO-treated control, p > 0.05 for all groups. As to the method: Furthermore, corneal epithelial cell wound healing was determined on bovine corneas ex vivo. Bovine globes were obtained from a local butchery following approval by the authority for waste management of animal carcasses (ID: DE 09 162 0066-219) and processed within 12 hours post-mortem. The bovine globes were washed in 10% w/v povidone-iodine for 5 minutes. A circular corneal epithelial erosion was created using an 8 mm trephine and a hockey knife (Katena Products Inc., Parsippany, NJ, USA). Subsequently, a sclerocorneal ring was excised with eye scissors (Katena Products Inc., Parsippany, NJ, USA) and transferred to a 60 mm cell culture plate. To acquire reference images of the corneal erosion, the wound area was stained with a 0.8 mg/ml fluorescein sodium solution and illuminated with blue light (approximate wavelength 490 nm). Images were acquired using a distance-fixed digital single lens reflex camera equipped with a macro lens (Canon Inc., Tokyo, Japan). Consequently, the sclerocorneal rings were incubated in Dulbecco's Modified Eagle's Medium (Bio&SELL GmbH, Feucht, Germany) supplemented with 50 IU penicillin/ml and 50 µg streptomycin/ml (Merck Millipore, Burlington, MA, USA) and astragaloside IV or DMSO only. Follow-up images were acquired every 12 hours, the cell culture medium was renewed daily.

For test [5], the system named is hCEC. Nature of the test: Cell scratch assay (migration / wound healing in vitro), follow-up up to 72 hours. The conditions noted are these: 1 µM, 2.5 µM; follow-up of 72 hours; versus DMSO-only control; p > 0.05 for all groups. The class given is cell-based, Human. How it is done: To analyze hCEC migration in vitro, cells were cultured in corneal epithelial cell growth medium with supplement mix until confluence of the cells of a 6-well cell culture plate. Following an incubation period of 24 hours in cell culture medium without supplements, 5 linear scratches were performed in each well using a 200 µl pipette tip (Eppendorf AG, Hamburg, Germany). The hCECs were then incubated prospectively under treatment with astragaloside IV or DMSO as a control for up to 72 hours. Reference images were acquired at the beginning of the incubation period using the phase contrast mode on an Axio Observer 7 (Carl Zeiss AG, Jena, Germany). Every 24 hours, follow-up images of 4-5 different scratch sections were acquired. The size of the wound area was analyzed using a semi-automated analysis tool in ImageJ 1.53a (National Institute of Health, Bethesda, MD, USA).

The subject of test [6] is Human corneal epithelial cells (hCEC). Nature of the test: WST-1 cell viability assay, 72 hours of treatment. The class given is cell-based. To be noted: DMSO-treated control 100 ± 9%, mean ± standard deviation. How it is done:
as §1

Molecules are shown by their SMILES.

Regarding `CC(C)(O)C1CCC(C)(C2C(O)CC3(C)C4CC(OC5OC(CO)C(O)C(O)C5O)C5C(C)(C)C(OC6OCC(O)C(O)C6O)CCC56CC46CCC23C)O1` [astragaloside IV, (2R,3R,4S,5S,6R)-2-(((2aR,3R,4R,5aS,7R,11aR)-4-hydroxy-3-((2R,5S)-5-(2-hydroxypropan-2-yl)-2-methyltetrahydrofuran-2-yl)-2a,5a,8,8-tetramethyl-9-(((2S,3R,4S,5R)-3,4,5-trihydroxytetrahydro-2H-pyran-2-yl)oxy)hexadecahydrocyclopenta[a]cyclopropa[e]phenanthren-7-yl)oxy)-6-(hydroxymethyl)tetrahydro-2H-pyran-3,4,5-triol], the activity at 1 µM came out at 94 ± 7% in test [1] (1 µM with H2O2 100 µM) and 125 ± 26% in test [2] (1 µM, p = 0.0028, read-out: corneal epithelial cell proliferation). Besides, the activity at 2.5 µM in test [1] (2.5 µM with H2O2 100 µM) worked out at 94 ± 15%; in test [2] (2.5 µM, p = 0.0017, read-out: corneal epithelial cell proliferation) it was 126 ± 30%. In test [2] (5 µM, not significant, p > 0.9999, read-out: corneal epithelial cell proliferation), the activity at 5 µM was determined as 112 ± 14%. The viability at 1 µM was 91 ± 4% in test [3] (1 µM with H2O2 100 µM, p = 0.0044 vs H2O2) and 154 ± 33% in test [6] (1 µM, p < 0.0001). The viability at 2.5 µM in test [3] (2.5 µM with H2O2 100 µM, p = 0.0002 vs H2O2) is 95 ± 6%; in test [6] (2.5 µM, p < 0.0001), 149 ± 27%. Besides, the speed of re-epithelialization result in test [4] is reported as “did not show any significant difference in the speed of re-epithelialization”. In test [5], the “corneal epithelial cell migration (scratched hCEC area over time)” value is “none of the treatment groups showed a significant decrease of corneal epithelial cell migration”. For the same compound, the viability at 5 µM in test [6] (5 µM, p = 0.0003) turned out to be 138 ± 22%. In test [6] (10 µM, non-significant decrease, p > 0.9999), the viability at 10 µM came out at 89 ± 5%.
